From the supplement of paper PMC10307832

Assays:
Assay in all cases: relative viability (nuclei count vs DMSO), 5 days (fraction); higher = more cells survive
[1] = compound: CCN1CCN(c2ccc(Nc3cc(N(C)C(=O)Nc4c(Cl)c(OC)cc(OC)c4Cl)ncn3)cc2)CC1 [BGJ398] + Cc1cc(Nc2cc(N3CCN(C)CC3)nc(Sc3ccc(NC(=O)C4CC4)cc3)n2)n[nH]1 [Tozasertib] (partner 0.1 µM)
Outline: (§1)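 After 5 days of treatment, lung cancer cells in 1536-well plates were fixed and stained in a single step (final 0.05% Triton X-100, 1% formaldehyde, 1 ug/ml Hoechst) and their nuclei counted on 4× images. Treatment had been applied by pin tool the day after seeding as one drug alone or as a fixed anchor-drug dose with five library-drug doses (not always all listed) in √10 steps. Relative viability is the nuclei count of treated wells divided by that of vehicle wells, and values are medians of duplicate plates.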

[2] = compound: C1=CC2=NC=CN=C2C=C1/C=C/3\C(=O)NC(=O)S3 + O=C(c1cc(Cc2n[nH]c(=O)c3ccccc23)ccc1F)N1CCN(C(=O)C2CC2)CC1 [Olaparib] (partner 8 µM)
Outline: as §1

[3] = compound: CCN1CCN(c2ccc(Nc3cc(N(C)C(=O)Nc4c(Cl)c(OC)cc(OC)c4Cl)ncn3)cc2)CC1 [BGJ398] + Nc1ncn([C@H]2C[C@H](O)[C@@H](CO)O2)c(=O)n1 [Decitabine] (partner 2 µM)
Outline: as §1

[4] = compound: C1=CC2=NC=CN=C2C=C1/C=C/3\C(=O)NC(=O)S3 + CS(=O)(=O)CCNCc1ccc(-c2ccc3ncnc(Nc4ccc(OCc5cccc(F)c5)c(Cl)c4)c3c2)o1 [Lapatinib] (partner 2 µM)
Outline: as §1

Cell Line	relative viability ([1]; first compound 0.01 µM)	relative viability ([1]; first compound 0.03162 µM)	relative viability ([1]; first compound 0.1 µM)	relative viability ([1]; first compound 0.3162 µM)	relative viability ([1]; first compound 1 µM)	relative viability ([2]; first compound 0.02 µM)	relative viability ([2]; first compound 0.06325 µM)	relative viability ([2]; first compound 0.2 µM)	relative viability ([2]; first compound 0.6325 µM)	relative viability ([2]; first compound 2 µM)	relative viability ([3]; first compound 0.01 µM)	relative viability ([3]; first compound 0.03162 µM)	relative viability ([3]; first compound 0.1 µM)	relative viability ([3]; first compound 0.3162 µM)	relative viability ([3]; first compound 1 µM)	relative viability ([4]; first compound 0.02 µM)	relative viability ([4]; first compound 0.06325 µM)	relative viability ([4]; first compound 0.2 µM)	relative viability ([4]; first compound 0.6325 µM)	relative viability ([4]; first compound 2 µM)
RERF-LC-KJ	0.455	0.558	0.479	0.441	0.533	0.893	0.937	1	0.888	0.939	0.66	0.79	0.765	0.739	0.642	0.729	0.923	0.842	0.759	0.689
SK-LU-1	0.354	0.34	0.312	0.284	0.222	0.477	0.42	0.488	0.521	0.465	0.62	0.572	0.761	0.527	0.584	0.834	0.977	0.891	1.01	0.693
SK-MES-1	0.87	0.892	0.829	0.785	0.857	0.677	0.793	0.846	0.796	0.657	0.377	0.345	0.41	0.349	0.321	0.374	0.656	0.486	0.397	0.406
SW 1573	0.182	0.171	0.185	0.189	0.171	0.501	0.65	0.434	0.405	0.387	0.501	0.557	0.478	0.498	0.466	1.09	1.36	0.982	0.928	0.978
